Assay results reported in publication PMC12123458, “Unraveling Small Molecule-Mediated Sirtuin 3 Activation at a Distinct Binding Site for Cardioprotective Therapies” (ACS Central Science, 2025).

Assays:
H9c2 cells = experiment: Dox-induced cardiotoxicity model in H9c2 cells, MTT cell viability; assay type: cell-based
Description: H9c2 cardiomyocytes were cultured in high-glucose DMEM supplemented with 10% FBS and 1% penicillin/streptomycin under a 5% CO2 atmosphere at 37 °C. Cells were seeded at 5 × 10^4 cells/mL in 96-well plates and treated with 1 μM Dox for 24 h. After Dox treatment, cell viability was quantified via MTT assay; 3-(4,5-dimethythiazol-2-yl)-2,5-diphenyltetrazolium bromide (MTT, 5 mg/mL) was applied for 4 h, followed by DMSO dissolution of formazan crystals. Additionally, cells were pretreated with 10 μM SKLB-11A for 24 h prior to 1 μM Dox exposure, and viability was similarly assessed using MTT.

hSirt3 = biological target: T1, hSirt3 (Homo sapiens, UniProt Q9NTG7); experiment: Mass spectrometry-based deacetylation assay, substrate […]-Ac; assay type: biochemical; settings: substrate GELLEAIK-Ac; SKLB-11A 100 μM
T1 sequence (Q9NTG7 1-399): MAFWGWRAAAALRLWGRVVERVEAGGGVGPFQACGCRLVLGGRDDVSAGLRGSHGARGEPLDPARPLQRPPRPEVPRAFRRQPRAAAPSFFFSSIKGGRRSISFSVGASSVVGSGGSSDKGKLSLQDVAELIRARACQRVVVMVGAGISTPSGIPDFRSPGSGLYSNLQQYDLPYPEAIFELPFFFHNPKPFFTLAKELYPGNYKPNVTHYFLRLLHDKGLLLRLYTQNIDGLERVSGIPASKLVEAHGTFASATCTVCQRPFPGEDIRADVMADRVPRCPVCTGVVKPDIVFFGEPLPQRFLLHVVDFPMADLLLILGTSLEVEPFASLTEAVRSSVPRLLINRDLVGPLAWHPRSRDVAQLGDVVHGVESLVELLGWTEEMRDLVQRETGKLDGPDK

SIRT1 [1] = biological target: T2, SIRT1 (Homo sapiens, UniProt Q96EB6); experiment: SPR binding to SIRT1
T2 sequence (Q96EB6 1-747): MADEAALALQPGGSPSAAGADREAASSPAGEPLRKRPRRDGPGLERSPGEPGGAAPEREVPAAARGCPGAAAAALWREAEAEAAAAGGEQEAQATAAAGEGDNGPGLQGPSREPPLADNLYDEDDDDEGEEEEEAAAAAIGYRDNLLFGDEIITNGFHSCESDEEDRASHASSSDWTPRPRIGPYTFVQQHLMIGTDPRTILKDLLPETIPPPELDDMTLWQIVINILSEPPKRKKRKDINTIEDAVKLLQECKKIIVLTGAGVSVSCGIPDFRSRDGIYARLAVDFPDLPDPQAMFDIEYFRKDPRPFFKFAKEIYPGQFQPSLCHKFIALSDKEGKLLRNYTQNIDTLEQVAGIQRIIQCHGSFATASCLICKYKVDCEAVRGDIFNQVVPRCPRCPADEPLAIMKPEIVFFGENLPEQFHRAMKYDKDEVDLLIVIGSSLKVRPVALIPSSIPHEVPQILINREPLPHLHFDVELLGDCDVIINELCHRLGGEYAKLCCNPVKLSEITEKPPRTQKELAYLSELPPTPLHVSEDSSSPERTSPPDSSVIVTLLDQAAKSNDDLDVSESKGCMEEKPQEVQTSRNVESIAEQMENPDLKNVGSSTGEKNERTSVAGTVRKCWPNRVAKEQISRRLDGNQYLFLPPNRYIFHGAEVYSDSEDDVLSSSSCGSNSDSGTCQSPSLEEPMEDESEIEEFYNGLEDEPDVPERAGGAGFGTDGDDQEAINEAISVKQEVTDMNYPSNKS
Description: (§1) The affinity of SKLB-11A for SIRT1, SIRT2, SIRT3, SIRT5, and SIRT6 was determined using a Reichert 4SPR system (Reichert Technologies, Depew, NY, USA). Proteins at 200 μg/mL were immobilized on a dextran-coated sensor chip (13206066) until reaching ≥12,000 response units (RUs). A dual-flow channel setup was used, reserving one channel for blank controls. SKLB-11A was introduced at varying concentrations for binding and subsequent dissociation kinetic analysis. Data acquisition was at 25 °C utilizing a PBST running buffer (pH 7.4). The equilibrium dissociation constant (K d) was computed from steady-state affinity measurements using TraceDrawer software.

SIRT2 = biological target: T3, SIRT2 (Homo sapiens, UniProt Q8IXJ6); experiment: SPR binding to SIRT2
T3 sequence (Q8IXJ6 1-389): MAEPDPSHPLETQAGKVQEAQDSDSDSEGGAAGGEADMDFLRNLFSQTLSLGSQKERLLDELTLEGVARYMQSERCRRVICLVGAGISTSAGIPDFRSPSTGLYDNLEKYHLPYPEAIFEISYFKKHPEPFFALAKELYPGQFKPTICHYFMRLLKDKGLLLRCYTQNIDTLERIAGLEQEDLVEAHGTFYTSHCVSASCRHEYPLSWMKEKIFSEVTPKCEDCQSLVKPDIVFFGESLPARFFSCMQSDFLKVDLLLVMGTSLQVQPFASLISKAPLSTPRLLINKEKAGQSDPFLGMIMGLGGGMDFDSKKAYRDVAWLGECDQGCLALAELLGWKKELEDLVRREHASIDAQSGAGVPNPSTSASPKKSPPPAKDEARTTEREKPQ
Description: as §1

wild-type SIRT3 = biological target: T4, wild-type SIRT3 (Homo sapiens, UniProt Q9NTG7); experiment: BLI binding of SKLB-11A to wild-type SIRT3; settings: read-out: dissociation constant, wild-type SIRT3
T4 sequence (Q9NTG7 1-399): T1 sequence (Q9NTG7 1-399)
Description: Binding kinetics of SIRT3 with various compounds were quantified using SSA biosensors on an Octet Red96 system (ForteBio). The assays occurred in 96-well plates, recording wavelength shifts in real-time. Ambient temperature was maintained at 25 °C, with plate agitation at 1000 rpm, and a reaction volume of 200 μL per well. SIRT3 protein and test compounds were prepared in phosphate-buffered saline (PBS, pH 7.4). Biosensors were equilibrated in PBS for 10 min before immobilizing SIRT3 (0.9 μg/mL) for 180 s, followed by a 120-s PBS wash. […] Data analysis was performed using ForteBio’s Octet RED software.

SIRT1 [2] = biological target: T2, SIRT1; experiment: Coupled enzymatic assay, acetylated p53-K381 substrate; assay type: biochemical; settings: 100 μM
Text: Additionally, we used surface plasmon resonance (SPR) to measure the binding of SKLB-11A to immobilized SIRT3. […] We next evaluated the selectivity of SKLB-11A for different SIRT family members. […] We next examined the functional specificity of SKLB-11A using coupled enzymatic assays with isoform-specific, physiologically relevant substrates: acetylated p53-K381 for SIRT1, acetylated α-tubulin-K25 for SIRT2, acetylated MnSOD-K122 for SIRT3, and succinylated CPS1-K537 for SIRT5 (Supplementary Table S3). […] Using Schrödinger molecular docking simulations, we assessed the binding interactions of SKLB-11A with SIRT isoforms.

## COC(=O)c1c(N)n(Cc2ccc(F)cc2)c2nc3ccccc3nc12 [SKLB-11A, Methyl 2-amino-1-(4-fluorobenzyl)-1H-pyrrolo[2,3-b]quinoxaline-3-carboxylate]
H9c2 cells; Dox-treated H9c2, MTT
  protective effects on H9c2 cells compared to the positive control compounds: slightly better protective effects
H9c2 cells; Rattus norvegicus, H9c2, 10 µM pretreatment 24 h, then 1 µM Dox 24 h, MTT, Model (Dox) = Dox alone, read-out: Cardiomyocyte survival rate at 10 uM (%)
  viability at 10 µM: 78.88 ± 0.65%
H9c2 cells; SIRT3 knockdown by shRNA, cell viability
  cardioprotective effects in H9c2 cells with reduced SIRT3 expression: significantly diminished
hSirt3
  catalytic efficiency of SIRT3 deacetylation (MS assay): significantly increased the catalytic efficiency
SIRT1 [1]; SPR
  Kd: > 200 µM
SIRT1 [1]; SPR Kd ratio
  affinity for SIRT1 lower than its affinity for SIRT3: approximately 40 times
SIRT2; SPR
  Kd: > 200 µM
SIRT2; SPR Kd ratio
  affinity for SIRT2 lower than its affinity for SIRT3: approximately 40 times
wild-type SIRT3
  Kd: 33.1 µM
SIRT1 [2]
  effect on basal SIRT1 deacetylation activity: no statistically significant effects
